Laboratory results published in patent US6441177B1 (Hoffmann-La Roche Inc., priority 1995, dated 2002).
pIC50: −log10 of the molar value.

Target: T1, human liver microsomal 2,3-oxidosqualene-lanosterol cyclase (OSC) (Homo sapiens, UniProt P48449)
T1 construct: Liver microsomes from a healthy volunteer were prepared in sodium phosphate buffer (pH 7.4); from tissue; host or cells: human liver microsomes from a healthy volunteer
T1 sequence (P48449 1-732): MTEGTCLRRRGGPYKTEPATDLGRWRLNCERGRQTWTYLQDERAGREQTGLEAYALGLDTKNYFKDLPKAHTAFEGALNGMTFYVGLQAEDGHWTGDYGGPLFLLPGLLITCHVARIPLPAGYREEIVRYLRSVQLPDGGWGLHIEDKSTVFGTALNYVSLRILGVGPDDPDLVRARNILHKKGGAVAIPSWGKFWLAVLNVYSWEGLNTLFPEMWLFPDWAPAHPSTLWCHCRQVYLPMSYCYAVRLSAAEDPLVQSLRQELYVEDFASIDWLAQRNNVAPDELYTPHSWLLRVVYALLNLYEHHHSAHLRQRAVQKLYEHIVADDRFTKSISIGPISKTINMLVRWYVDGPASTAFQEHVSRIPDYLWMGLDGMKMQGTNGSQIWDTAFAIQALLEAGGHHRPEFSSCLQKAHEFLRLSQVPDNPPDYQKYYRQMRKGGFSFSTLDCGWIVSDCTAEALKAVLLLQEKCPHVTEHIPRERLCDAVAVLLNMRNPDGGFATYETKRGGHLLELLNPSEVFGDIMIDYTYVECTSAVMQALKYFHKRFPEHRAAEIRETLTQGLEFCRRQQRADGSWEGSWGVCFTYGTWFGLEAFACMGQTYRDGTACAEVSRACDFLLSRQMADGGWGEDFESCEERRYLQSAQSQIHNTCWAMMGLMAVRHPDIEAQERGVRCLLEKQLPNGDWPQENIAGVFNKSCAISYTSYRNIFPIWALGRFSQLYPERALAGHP
Assay: Inhibition of human liver microsomal 2,3-oxidosqualene-lanosterol cyclase (OSC)
Type: biochemical
Details: human liver microsomes; for pIC50: concentration reducing conversion of MOS into lanosterol to 50% of control; for inhibition at 0.1 µM: constant test substance concentration of 100 nM, 1 hour at 37° C., against controls
Protocol: Inhibition of Human Liver Microsomal 2,3-Oxidosqualene-lanosterol Cyclase (OSC)
Liver microsomes from a healthy volunteer were prepared in sodium phosphate buffer (pH 7.4). The OSC activity was measured in the same buffer which also contained 1 mM EDTA and 1 mM dithiothreitol. The microsomes were diluted to 0.8 mg/ml protein in cold phosphate buffer. Dry [^14C]R,S-monooxidosqualene (MOS; 12.8 mCi/mmol) was diluted to 20 nCi/μl with ethanol and mixed with phosphate buffer-1% BSA (Bovine Serum Albumin). A stock solution of 1 mM test substance in DMSO was diluted to the desired concentration with phosphate buffer-1% BSA. 40 μl of microsomes were mixed with 20 μl of the solution of the test substance and the reaction was subsequently started with 20 μl of the [^14C]R,S-MOS solution. The final conditions were: 0.4 mg/ml of microsomal proteins and […] of [^14C]R,S-MOS in phosphate buffer, pH 7.4, containing 0.5% albumin, DMSO <0.1% and ethanol <2%, in a total volume of 80 μl.
After 1 hour at 37° C. the reaction was stopped by the addition of 0.6 ml of 10% KOH-methanol, 0.7 ml of water and 0.1 ml of hexane:ether (1:1, v/v) which contained 25 μg of non-radioactive MOS and 25 μg of lanosterol as the carrier. After shaking 1 ml of hexane:ether (1:1, v/v) was added to each test tube, these were again shaken and then centrifuged. The upper phase was transferred into a glass test tube, the lower phase was again extracted with hexane:ether and combined with the first extract. The entire extract was evaporated to dryness with nitrogen and the residue was suspended in 50 μl of hexane:ether and applied to a silica gel plate. Chromatographic separation was effected in hexane:ether (1:1, v/v) as the eluent. […] After drying radioactive MOS and lanosterol were observed on the silica gel plate. The ratio of MOS to lanosterol was determined from the radioactive bands in order to determine the OSC inhibition.
The test was carried out on the one hand with a constant test substance concentration of 100 nM and the percentage OSC inhibition against controls was calculated. In addition, the test was carried out with different test substance concentrations and subsequently the IC50 value was calculated, i.e. the concentration required to reduce the conversion of MOS into lanosterol to 50% of the control value.

Row | SMILES | pIC50 | inhibition at 0.1 µM [%]
1 | CN(C/C=C/COc1ccc(C(=O)c2ccc(C#N)cc2)cc1F)C1CC1 [Example 13b, (E)-4-[4-[4-(cyclopropyl-methyl-amino)-but-2-enyloxy]-3-fluoro-benzoyl]-benzonitrile] | 8.10 | 93.5
2 | CN(C[C@@H]1C[C@H]1COc1ccc(C(=O)c2ccc(Br)cc2)cc1)C1CC1 (racemic) [Example 31, (1RS,2RS)-(4-bromo-phenyl)-[4-[2-[(cyclopropyl-methyl-amino)-methyl]-cyclopropylmethoxy]-phenyl]-methanone] | 7.66 | 85
3 | CN(CCCCCCOc1ccc(C(=O)c2ccc(Br)cc2)c(F)c1)C1CC1 [Example 2p, (4-bromo-phenyl)-[4-[6-(cyclopropyl-methyl-amino)-hexyloxy]-2-fluoro-phenyl]-methanone] |  | 66
4 | C=CCN(C)CCCCCCOc1ccc(C(C)(O)c2ccc(Br)cc2)c(F)c1 (racemic) [Example 38, (RS)-1-[4-[6-(allyl-methyl-amino)-hexyloxy]-2-fluoro-phenyl]-1-(4-bromo-phenyl)-ethanol] | 7.68 | 82
5 | C=CCN(C)C/C=C/COc1ccc(C(=NOC)c2ccc(Br)cc2)cc1 [Example 51, (E)-and/or (Z)-[4-[(E)-4-(ally-methyl-amino)-but-2-enyloxy]-phenyl]-(4-bromo-phenyl)-methanone-0-methyl-oxime] | 7.89 | 87.5
6 | C=CCN(C)CCCCCCOc1ccc(C(=O)c2ccc(Br)cc2)c(N(C)C)c1 [Example 34a, [4-[6-(allyl-methyl-amino)-hexyloxy]-2-dimethylamino-phenyl]-(4-bromo-phenyl)-methanone] | 8.15 | 98
7 | C=CCN(C)C/C=C/COc1ccc(C(C)(O)CCC=C(C)C)cc1 (racemic) [Example 39a, (E)-(RS)-2-[4-[4-(allyl-methyl-amino)-but-2-enyloxy]-phenyl]-6-methyl-hept-5-en-2-ol] | 7.91 | 87
8 | C=CCN(C)C/C=C/COc1ccc(C(O)(C=C)c2ccc(Br)cc2)cc1 (racemic) [Example 8b, (E)-(RS)-1-[4-[4-(allyl-methyl-amino)-but-2-enyloxy]-phenyl]-1-(4-bromo-phenyl)-prop-2-en-1-ol] | 7.63 | 78

The remaining lines, values ahead:

Row | pIC50 | inhibition at 0.1 µM [%] | SMILES
9 | 8.62 | 90 | C=CCN(C)C/C=C/COc1cc(F)c(C(=O)c2ccc(Br)cc2)cc1F [Example 1, (E)-[4-[4-(allyl-methyl-amino)-but-2-enyloxy]-2,5-difluoro-phenyl]-(4-bromo-phenyl)-methanone]
10 | 8.26 | 94 | C=CCN(C)CCCCCCOC1CCN(S(=O)(=O)c2ccc(Br)cc2)CC1 [Example 49, allyl-[6-[1-(4-bromo-phenylsulphonyl)-piperidin-4-yloxy]-hexyl]-methyl-amine]
11 | 8.49 | 93 | C=CCN(C)CCCCCCNc1ccc(C(=O)c2ccc(Br)cc2)cc1F [Example 30, [4-[6-(allyl-methyl-amino)-hexylamino]-3-fluoro-phenyl]-(4-bromo-phenyl)-methanone]
12 | 8.44 | 85 | CN(C[C@@H]1C[C@H]1COc1ccc(C(=O)c2ccc(Br)cc2)cc1F)C1CC1 (racemic) [Example 32a, (1RS,2RS)-(4-bromo-phenyl)-[4-[2-[(cyclopropyl-methyl-amino)-methyl]-cyclopropylmethoxy]-3-fluoro-phenyl]-methanone]
13 | 8.64 | 98 | C=CCN(C)CCCCCCOc1ccc(C(=O)c2ccc(Br)cc2)c(NC)c1 [Example 33, [4-[6-(allyl-methyl-amino)-hexyloxy]-2-methylamino-phenyl]-(4-bromo-phenyl)-methanone]
14 | 8.31 | 92 | C=CCN(C)CCCCCCOc1ccc(C(=O)c2ccc(Br)cc2)c(SC)c1 [Example 3, [4-[6-(allyl-methyl-amino)-hexyloxy]-2-methylsulphanyl-phenyl]-(4-bromo-phenyl)-methanone]
